Tests used:
Leukotriene C4 synthase = biological target: T1, Leukotriene C4 synthase (Homo sapiens, UniProt Q16873); assay: Inhibition of LTC4 (unknown origin)
T1 sequence (Q16873 whole entry): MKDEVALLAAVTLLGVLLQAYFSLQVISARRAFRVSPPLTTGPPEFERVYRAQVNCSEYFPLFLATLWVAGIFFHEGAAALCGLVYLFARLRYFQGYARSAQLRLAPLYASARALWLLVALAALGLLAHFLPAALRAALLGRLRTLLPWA

[1] = biological target: T2, Cysteinyl leukotriene receptor 1 (Cavia porcellus, UniProt Q2NNR5); assay: Inhibition of guinea pig leukotriene D4
T2 sequence (Q2NNR5 whole entry): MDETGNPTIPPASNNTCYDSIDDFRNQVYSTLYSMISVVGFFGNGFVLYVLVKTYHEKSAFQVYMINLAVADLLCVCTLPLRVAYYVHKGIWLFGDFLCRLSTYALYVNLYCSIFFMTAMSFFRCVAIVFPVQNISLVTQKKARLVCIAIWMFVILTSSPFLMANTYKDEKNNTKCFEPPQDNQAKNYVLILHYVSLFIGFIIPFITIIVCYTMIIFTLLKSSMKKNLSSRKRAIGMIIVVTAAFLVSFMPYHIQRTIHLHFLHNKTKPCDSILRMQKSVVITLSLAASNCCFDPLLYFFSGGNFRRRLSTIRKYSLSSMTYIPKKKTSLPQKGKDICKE

Histamine H4 receptor = Histamine H4 receptor (Homo sapiens, UniProt Q9H3N8); assay: Binding affinity to histamine H4 receptor (unknown origin) assessed as inhibition constant
Sequence of Histamine H4 receptor (Q9H3N8 whole entry): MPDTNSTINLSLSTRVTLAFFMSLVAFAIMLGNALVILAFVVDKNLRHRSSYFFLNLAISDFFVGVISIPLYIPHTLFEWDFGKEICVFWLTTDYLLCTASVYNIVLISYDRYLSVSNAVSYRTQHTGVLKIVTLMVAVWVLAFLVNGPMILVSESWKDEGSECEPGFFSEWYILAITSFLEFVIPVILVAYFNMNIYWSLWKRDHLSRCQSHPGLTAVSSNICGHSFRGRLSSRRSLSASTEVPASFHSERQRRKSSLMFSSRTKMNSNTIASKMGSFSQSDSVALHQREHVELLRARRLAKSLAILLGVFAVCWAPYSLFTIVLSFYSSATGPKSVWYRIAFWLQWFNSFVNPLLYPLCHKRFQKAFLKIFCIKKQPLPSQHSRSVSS

[2] = Half life in Sprague-Dawley rat at 3 mg/kg, iv measured by LC/MS analysis; type: ADME, organism-based; settings: in vivo

Cc1cccc(NC(=S)NC(C)c2cccc3ccccc23)n1 (configuration not stated)
IC50 (Leukotriene C4 synthase): 1600 nM

COC1(c2cc(F)cc(OCc3ccc4c(ccc(=O)n4C)c3)c2)CCOCC1 [ZD-2138]
IC50 [1]: 300 nM

O=C(c1cc2ccccc2[nH]1)N1CCNCC1
Ki (Histamine H4 receptor): 4.9 nM

CN1CCN(C(=O)c2cc3cc(Cl)ccc3[nH]2)CC1 [JNJ-7777120]
half-life [2]: 48 min

S=C(NCCc1c[nH]c2ccccc12)Nc1ccc(Cl)cn1
IC50 (Leukotriene C4 synthase): 5000 nM

CCOC(=O)Cc1csc(NC(=S)NC(C)c2cccc3ccccc23)n1 (configuration not stated)
IC50 (Leukotriene C4 synthase): 2 nM

Cn1nccc1-c1ccc(Sc2ccc(C3(C(N)=O)CCOCC3)cc2)cc1
IC50 [1]: 229 nM

Oc1ccc(CCNC(=S)Nc2ccc(Br)cn2)cc1
IC50 (Leukotriene C4 synthase): 5000 nM

CN1CCN(C(=O)c2nc3cc(Cl)ccc3[nH]2)CC1
Ki (Histamine H4 receptor): 27 nM

CN1CCN(c2cc(-c3ccc(Cl)cc3)nc(N)n2)CC1
Ki (Histamine H4 receptor): 4.8 nM

Cc1cc(C)c2nc(-c3cnc(NCCCC4CCN(C)CC4)nc3C)[nH]c2c1 [TOREFORANT]
Ki (Histamine H4 receptor): 8.4 nM

Cc1ccc(NC(=S)NC(C)c2cccc3ccccc23)nc1 (configuration not stated)
IC50 (Leukotriene C4 synthase): 5 nM

Source: ChEMBL document CHEMBL5346900, “Treatment of allergy: Overview of synthetic anti-allergy small molecules in medicinal chemistry” (Eur J Med Chem, 2023)
